Consider one compound from ChEMBL document CHEMBL4765450, “The components and activities analysis of a novel anticoagulant candidate dHG-5” (Eur J Med Chem, 2020).

Activity calls are given as the source filed them. No cut-off for these calls is given here.

The test system of data set [1] is Plasma. Briefly: Induction of platelet aggregation in human platelet rich plasma at plasma peak concentration of 10 times anti-thrombosis ED50 measured after 10 mins by light transmission aggregometry.
Data set [2] concerns the target Prothrombin (Homo sapiens) (UniProt P00734). In words: Inhibition of factor 2a (unknown origin) at IC50 preincubated for 1 min followed by chromogenic substrate addition and measured for 2 mins. Particulars: time 3.0 min.
Data set [3] has as its target Coagulation factor X (Homo sapiens) (UniProt P00742). In words: Inhibition of factor 10a (unknown origin) at IC50 preincubated for 1 min followed by chromogenic substrate addition and measured for 2 mins in presence of AT-III. The note with it: time 3.0 min.
Data set [4] concerns the target Prothrombin (Homo sapiens) (UniProt P00734). Briefly: Inhibition of factor 2a (unknown origin) at IC90 preincubated for 1 min followed by chromogenic substrate addition and measured for 2 mins in presence of AT-III. The note with it: time 3.0 min.
Data set [5] deals with Coagulation factor X (Homo sapiens) (UniProt P00742). In words: Inhibition of factor 10a (unknown origin) at IC90 preincubated for 1 min followed by chromogenic substrate addition and measured for 2 mins in presence of AT-III relative to control. Particulars: time 3.0 min.
The subject of data set [6] is Plasma. Briefly: Anticoagulation activity in human plasma assessed as drug level causing 20 times doubling of APTT preincubated for 2 mins followed by APTT reagent and measured after 3 mins by coagulometric method. It counts as functional. Particulars: time 5 min.
For data set [7], the system named is Plasma. Briefly: Induction of platelet aggregation in rat wash platelet at plasma peak concentration of 10 times anti-thrombosis ED50 measured after 10 mins by light transmission aggregometry.
A short description of data set [8]: Tmax in Kunming mouse at 1.7 mg/kg, sc. It counts as ADME, organism-based. The note with it: in vivo.
Data set [9] in a line: MRT (0 to 8 hrs) in Kunming mouse at 1.7 mg/kg, sc. Particulars: in vivo. The format is ADME, organism-based.
Data set [10] can be described thus: Half life in Kunming mouse at 1.7 mg/kg, sc. The format is ADME, organism-based. Particulars: in vivo.
Data set [11] can be described thus: MRT (0 to 8 hrs) in Kunming mouse at 5.11 mg/kg, sc. It counts as ADME, organism-based. Particulars: in vivo.
Another data set has as its system Mus musculus. In words: Anticoagulation activity in Kunming mouse assessed as APTT-prolonging effect by measuring time for maximum effect at 15.3 mg/kg, sc measured after 0.5 to 8 hrs by APTT reagent based assay. It counts as functional. The note with it: time 0.5-8 hrs.
A short description of data set [12]: MRT (0 to 8 hrs) in Kunming mouse at 15.3 mg/kg, sc. It counts as ADME, organism-based. Particulars: in vivo.

Coagulation factor X (Homo sapiens), sequence (P00742 41-179 limits assumed): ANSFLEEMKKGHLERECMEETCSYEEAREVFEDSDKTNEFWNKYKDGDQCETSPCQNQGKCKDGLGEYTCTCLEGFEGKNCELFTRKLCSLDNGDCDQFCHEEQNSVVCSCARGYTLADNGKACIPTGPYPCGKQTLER
Coagulation factor X (Homo sapiens), sequence (P00742 235-488 limits assumed): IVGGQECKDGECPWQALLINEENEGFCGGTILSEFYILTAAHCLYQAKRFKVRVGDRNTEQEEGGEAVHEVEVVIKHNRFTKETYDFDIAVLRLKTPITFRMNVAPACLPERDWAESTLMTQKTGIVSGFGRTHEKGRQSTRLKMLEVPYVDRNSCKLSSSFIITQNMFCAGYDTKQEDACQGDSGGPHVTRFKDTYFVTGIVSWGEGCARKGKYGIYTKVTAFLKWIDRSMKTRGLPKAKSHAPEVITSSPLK

Usually Tmax stands for the time from dosing to the highest level. A word on the MRT last: it is a mean duration of stay, worked out from the concentration-time curve. Usually half-life stands for how long it takes for the measured level to halve. Take `CC(=O)N[C@H]1[C@H](O[C@H]2[C@H](O[C@@H]3O[C@@H](C)[C@@H](OS(=O)(=O)[O-])[C@@H](O)[C@@H]3OS(=O)(=O)O)[C@@H](O)[C@H](O[C@H]3[C@@H](NC(C)=O)[C@H](O[C@H]4[C@H](O[C@@H]5O[C@@H](C)[C@@H](OS(=O)(=O)[O-])[C@@H](O)[C@@H]5OS(=O)(=O)O)[C@@H](O)[C@H](O[C@H]5[C@@H](NC(C)=O)[C@H](O[C@H]6[C@H](O[C@@H]7O[C@@H](C)[C@@H](OS(=O)(=O)[O-])[C@@H](O)[C@@H]7OS(=O)(=O)O)[C@@H](O)[C@H](O[C@H]7[C@@H](NC(C)=O)[C@H](O[C@H]8[C@H](O[C@@H]9O[C@@H](C)[C@@H](OS(=O)(=O)[O-])[C@@H](O)[C@@H]9OS(=O)(=O)O)[C@@H](O)[C@H](O[C@H]9[C@@H](NC(C)=O)[C@H](O[C@@H]([C@H](O[C@@H]%10O[C@@H](C)[C@@H](OS(=O)(=O)[O-])[C@@H](O)[C@@H]%10OS(=O)(=O)O)[C@@H](O)CO)[C@H](O)C(=O)[O-])O[C@H](COS(=O)(=O)[O-])[C@@H]9OS(=O)(=O)[O-])O[C@@H]8C(=O)[O-])O[C@H](COS(=O)(=O)[O-])[C@@H]7OS(=O)(=O)[O-])O[C@@H]6C(=O)[O-])O[C@H](COS(=O)(=O)[O-])[C@@H]5OS(=O)(=O)[O-])O[C@@H]4C(=O)[O-])O[C@H](COS(=O)(=O)[O-])[C@@H]3OS(=O)(=O)[O-])O[C@@H]2C(=O)[O-])O[C@H](COS(=O)(=O)[O-])[C@H](OS(=O)(=O)[O-])[C@@H]1O[C@@H]1OC(C(=O)[O-])=C[C@H](O[C@@H]2O[C@@H](C)[C@@H](OS(=O)(=O)[O-])[C@@H](O)[C@@H]2OS(=O)(=O)O)[C@H]1O.[Na+].[Na+].[Na+].[Na+].[Na+].[Na+].[Na+].[Na+].[Na+].[Na+].[Na+].[Na+].[Na+].[Na+].[Na+].[Na+].[Na+].[Na+].[Na+].[Na+].[Na+].[Na+]`: the Activity entry in the data set on Plasma [1] and with Plasma [7] was “Not Active” each time. The inhibition entry in [2], in data set [3] and in data set [5] was “inactive” each time. Moreover, the inhibition entry in [4] was “Active”. In the data set with Plasma [6], the EC came to 1.79 µM. Moreover, the Tmax in data set [8] was 1.17 h. For the same compound, the MRT last in data set [9] came out at 1.99 h; in [11] it was 1.52 h; in [12] it was 1.66 h. This compound gave a half-life in data set [10] of 1.09 h. Moreover, the Emax with Mus musculus was 20.2 s.
